Test results: patent publication US12239650B2, “Compounds for treating and preventing net associated complications” (The Australian National University, priority 2019, dated 2025)

How the values were obtained:
[1] = tested on: histone-induced platelet aggregation; experiment: Histone-induced aggregation of isolated platelets; type: cell-based, human; settings: FIG. 4b; for Inhibition of histone-induced platelet aggregation: histones 150 μg/mL, isolated platelets
Protocol: In vitro platelet aggregation and degranulation assays. For aggregation studies platelets were isolated from human whole blood collected into Na-citrate vacutainers through 2-step centrifugation at room temperature (200×g for 20 min then the platelet-rich plasma 800×g for 15 min), the platelet pellet resuspended in Hank's balanced salt solution containing calcium and magnesium and histones added and incubated in the presence/absence of compounds at the concentrations of each as indicated. Samples were assessed for degree of platelet aggregation after 15 min exposure to histones by flow cytometry using the characteristic log FSC versus log SSC identification of platelets, with increases in the geometric mean of log FSC indicative of platelet aggregation.

histones = experiment: Lipid bilayer assay (artificial lipid bilayers exposed to histones); settings: for Average bilayer lifetime: histones alone 5.7±1.2, control 46±4; for Incidence of rapid bilayer rupture: within 0.3-0.5 min of histone addition, histones alone 28%
Protocol: Lipid bilayer assays. Artificial lipid bilayers, prepared as previously described (Rebbeck, R. T. et al. The beta(1a) subunit of the skeletal DHPR binds to skeletal RyR1 and activates the channel via its 35-residue C-terminal tail. Biophys J 100, 922-930 (2011).), separated symmetrical 150 mM or 250 mM KCl (pH ˜5.5) solutions. Histones (1 μM, 15.2 μg ml^−1) were added to bilayers alone or after 0.5-3 h incubation with 10 μM CBS (3.5 μg ml^−1) or 10 μM MTS (5.1 μg ml^−1) at ˜20° C. Current was recorded continuously after histone addition until the bilayers broke or the experiment was terminated.

[2] = tested on: anti-proliferative effect of sepsis patients sera on HMEC-1; type: cell-based, human; settings: HMEC-1, test compounds 200 μg ml^−1, FIG. 9d
Protocol: Detection and analysis of cytotoxicity of septic patient sera for endothelial cells. To measure the cytotoxic activity of septic patients sera for endothelial cells in-vitro, HMEC-1 were seeded into 96-well plates at 2.5×10^4 well^−1 in medium and grown at 37° C. in 5% CO2 for 48 h prior to the addition of 50 μl of patient serum in the presence/absence of DNase I (10 μg ml^−1), anti-human histone 3 and histone 4 rabbit pAbs (200 μg ml^−1) (BioVision), or test compounds (200 μg ml^−1) and incubated for 3 h. ^3H-thymidine (0.5 μCi, MP Biomedical) was then added to each culture well in 20 μl of HMEC-1 medium and incubated for a further 24 h. At the conclusion of the incubation period plates were subjected to 3 freeze/thaw cycles (−70° C. for 30 min, then 37±0.5° C. for 30 min) prior to harvesting and measurement of ^3H-thymidine incorporation. […] Filters were dried at 80° C. and placed in Omnifilter plates (Perkin Elmer) then 20 μl of Microscint-O scintillation fluid (Perkin Elmer) was added to each well and the plate sealed with TopSeal-A adhesive film (Perkin Elmer). ^3H-thymidine incorporation was measured using a TopCount NXT™ Microplate Scintillation and Luminescence Counter (Packard Bioscience). Results expressed as a percentage of the proliferation of HMEC-1 not exposed to patient sera.

[3] = tested on: histone-induced erythrocyte rigidity; experiment: Erythrocyte deformability, passage through artificial spleen; type: cell-based, human; settings: histones 400 μg ml^−1, compounds 100 and 200 μg ml^−1, FIG. 3d
Protocol: Human erythrocytes (RBC) were incubated for 1 h at 37° C. alone (‘Saline’ control) or in the presence of histones (400 μg ml^−1) with or without mCBS (200 μg ml^−1). a, Percentage of RBC aggregation measured by flow cytometry based on forward (FSC) and side (SSC) scatter parameters and an appropriate gating strategy to discriminate aggregated from normal (non-aggregated) RBC. b, Scanning electron micrographs depicting level of RBC aggregation at low and high magnification following the three treatments depicted in (a). c, Concentration dependent inhibition of histone-mediated RBC aggregation by mCBS and MTS, in this case RBC aggregation being calculated by flow cytometry as fold increase in RBC auto-fluorescence relative to RBC in the absence of histones. The fold increase values also provide an estimate of the number of RBC in each aggregate. d, Retention of RBC in an artificial spleen that measures RBC deformability. […]
In vitro erythrocyte microscopy, aggregation, fragility and deformability assays. […] Similarly, erythrocyte fragility induced by histones, in the presence or absence of inhibitors, was quantified using a sheer stress assay that we developed recently (Kordbacheh, F., O'Meara, C. H., Coupland, L. A., Lelliott, P. M. & Parish, C. R. Extracellular histones induce erythrocyte fragility and anemia. Blood 130, 2884-2888 (2017)). […]

[4] = tested on: anti-proliferative effect of histones on HMEC-1; experiment: HMEC-1 proliferation (3H-thymidine) after histone exposure; type: cell-based, human; settings: compounds 100 μg ml^−1, histones 400 μg ml^−1, FIG. 8b
[5] = histones 1 μM with 10 μM compound

O=S(=O)(O)OC[C@H]1O[C@@H](O[C@H]2[C@H](OS(=O)(=O)O)[C@@H](OS(=O)(=O)O)C(OS(=O)(=O)O)O[C@@H]2COS(=O)(=O)O)[C@H](OS(=O)(=O)O)[C@@H](OS(=O)(=O)O)[C@@H]1OS(=O)(=O)O (stereo partly drawn) [CBS, cellobiose per-O-sulfate]
Inhibition of histone-induced platelet aggregation [1]: completely inhibited | Average bilayer lifetime (histones; [5]): 18 ± 4 min | Incidence of rapid bilayer rupture (histones): 5.8% | Effect on anti-proliferative activity of the 10 most inhibitory septic patient sera [2]: significantly overrode

O=S(=O)(O)OC[C@H]1O[C@H](O[C@H]2[C@H](OS(=O)(=O)O)[C@@H](OS(=O)(=O)O)C(OS(=O)(=O)O)O[C@@H]2COS(=O)(=O)O)[C@H](OS(=O)(=O)O)[C@@H](OS(=O)(=O)O)[C@@H]1O[C@H]1O[C@H](COS(=O)(=O)O)[C@@H](OS(=O)(=O)O)[C@H](OS(=O)(=O)O)[C@H]1OS(=O)(=O)O (stereo partly drawn) [MTS, maltotriose per-O-sulfate]
Ability of erythrocytes to passage through an artificial spleen [3]: totally restored | Relative activity in inhibiting histone-induced platelet aggregation [1]: most active | Inhibition of histone-induced platelet aggregation [1]: completely inhibited | Bilayer lifetime compared with control lifetimes (histones; [5]): not significantly different from the control lifetimes | Average bilayer lifetime (histones; [5]): 36 ± 5 min | Incidence of rapid bilayer rupture (histones): 2.5% | Neutralization of anti-proliferative effect of histones on HMEC-1 monolayers [4]: completely neutralized | Effect on anti-proliferative activity of the 10 most inhibitory septic patient sera [2]: did not
